Measured values as given in ChEMBL document CHEMBL1137638, “TEM-158 (CMT-9), a new member of the CMT-type extended-spectrum beta-lactamases” (Antimicrob Agents Chemother, 2007).
≈ marks a conversion by molar mass, not a printed value.

Assays:
[1] = test system: Escherichia coli; assay: Antibacterial activity against Escherichia coli BER1 producing beta-lactamase pI 5.2 and pI 5.4 by microdilution method; type: functional
[2] = test system: Escherichia coli; assay: Antibacterial activity against rifampin-resistant Escherichia coli C600 transconjugant producing beta-lactamase of pI 5.2 by microdilution method; type: functional
[3] = test system: Escherichia coli; assay: Antibacterial activity against Escherichia coli DH5alpha producing beta-lactamase TEM-158 by microdilution method; type: functional
[4] = test system: Escherichia coli; assay: Antibacterial activity against Escherichia coli DH5alpha producing beta-lactamase TEM-12 by microdilution method; type: functional
[5] = test system: Escherichia coli; assay: Antibacterial activity against Escherichia coli DH5alpha producing beta-lactamase TEM-35 by microdilution method; type: functional
[6] = test system: Escherichia coli; assay: Antibacterial activity against Escherichia coli DH5alpha producing beta-lactamase TEM-1 by microdilution method; type: functional
[7] = test system: Escherichia coli; assay: Antibacterial activity against Escherichia coli DH5alpha by microdilution method; type: functional
[8] = test system: Escherichia coli; assay: Antibacterial activity against rifampin-resistant Escherichia coli C600 by microdilution method; type: functional
[9] = Inhibition of Escherichia coli DH5alpha beta-lactamase TEM-12
[10] = Inhibition of Escherichia coli CF0042 beta-lactamase TEM-35
[11] = Inhibition of Escherichia coli DH5alpha CL1179 clone beta-lactamase TEM-152 after 10 mins
[12] = Inhibition of Escherichia coli DH10B beta-lactamase TEM-121 after 10 mins; design: species or system Escherichia coli str. K-12 substr. DH10B
[13] = Inhibition of Escherichia coli TO799 beta-lactamase TEM-125 after 10 mins

Structure (SMILES)	MIC [1] [µg/mL]	MIC [2] [µg/mL]	MIC [3] [µg/mL]	MIC [4] [µg/mL]	MIC [5] [µg/mL]	MIC [6] [µg/mL]	MIC [7] [µg/mL]	MIC [8] [µg/mL]	IC50 [9] [nM]	IC50 [10] [nM]	IC50 [11] [nM]	IC50 [12] [nM]	IC50 [13] [nM]
CO/N=C(\C(=O)N[C@@H]1C(=O)N2C(C(=O)O)=C(COC(C)=O)CS[C@H]12)c1csc(N)n1 [CEFOTAXIME]	0.25 (≈ 0.549 µM)	0.25 (≈ 0.549 µM)	0.25 (≈ 0.549 µM)	0.12 (≈ 0.263 µM)	0.06 (≈ 0.132 µM)	0.06 (≈ 0.132 µM)	0.06 (≈ 0.132 µM)	0.06 (≈ 0.132 µM)					
CC1(C)S[C@@H]2[C@H](NC(=O)[C@H](N)c3ccc(O)cc3)C(=O)N2[C@H]1C(=O)O [AMOXICILLIN]	> 2050	> 2050	> 2050	> 2050	> 2050	> 2050	4 (≈ 10.9 µM)	4 (≈ 10.9 µM)					
CC(C)(O/N=C(\C(=O)N[C@@H]1C(=O)N2C(C(=O)[O-])=C(C[n+]3ccccc3)CS[C@H]12)c1csc(N)n1)C(=O)O [CEFTAZIDIME]	16 (≈ 29.3 µM)	16 (≈ 29.3 µM)	32 (≈ 58.5 µM)	32 (≈ 58.5 µM)	0.25 (≈ 0.457 µM)	0.12 (≈ 0.22 µM)	0.12 (≈ 0.22 µM)	0.12 (≈ 0.22 µM)					
CO/N=C(\C(=O)N[C@@H]1C(=O)N2C(C(=O)O)=C(COC(N)=O)CS[C@H]12)c1ccco1 [CEFUROXIME]	8 (≈ 18.9 µM)	4 (≈ 9.43 µM)	8 (≈ 18.9 µM)	8 (≈ 18.9 µM)	8 (≈ 18.9 µM)	4 (≈ 9.43 µM)	4 (≈ 9.43 µM)	4 (≈ 9.43 µM)					
CO/N=C(\C(=O)N[C@@H]1C(=O)N2C(C(=O)[O-])=C(C[N+]3(C)CCCC3)CS[C@H]12)c1csc(N)n1	4 (≈ 8.32 µM)	4 (≈ 8.32 µM)	4 (≈ 8.32 µM)	1 (≈ 2.08 µM)	< 0.06	< 0.06	< 0.06	< 0.06					
C[C@H]1[C@H](NC(=O)/C(=N\OC(C)(C)C(=O)O)c2csc(N)n2)C(=O)N1S(=O)(=O)O [AZTREONAM]	1 (≈ 2.3 µM)	1 (≈ 2.3 µM)	1 (≈ 2.3 µM)	4 (≈ 9.19 µM)									
C[C@@H](O)[C@H]1C(=O)N2C(C(=O)O)=C(SCCNC=N)C[C@H]12 [IMIPENEM ANHYDROUS]				0.25 (≈ 0.835 µM)									
CCN1CCN(C(=O)N[C@@H](C(=O)N[C@@H]2C(=O)N3[C@@H]2SC(C)(C)[C@@H]3C(=O)O)c2ccccc2)C(=O)C1=O [PIPERACILLIN]	2050 (≈ 3960 µM)	2050 (≈ 3960 µM)	2050 (≈ 3960 µM)	> 2050	> 2050	512 (≈ 989 µM)	2 (≈ 3.86 µM)	2 (≈ 3.86 µM)					
CC1(C)S[C@@H]2[C@H](NC(=O)[C@H](C(=O)O)c3ccsc3)C(=O)N2[C@H]1C(=O)O [TICARCILLIN]	> 2050	> 2050	> 2050	> 2050	> 2050	> 2050	2 (≈ 5.2 µM)	2 (≈ 5.2 µM)					
CC(=O)OCC1=C(C(=O)O)N2C(=O)[C@@H](NC(=O)Cc3cccs3)[C@H]2SC1 [CEPHALOTHIN]	32 (≈ 80.7 µM)	16 (≈ 40.4 µM)	32 (≈ 80.7 µM)	8 (≈ 20.2 µM)	16 (≈ 40.4 µM)	4 (≈ 10.1 µM)	4 (≈ 10.1 µM)	4 (≈ 10.1 µM)					
O=C(O)[C@H]1/C(=C/CO)O[C@@H]2CC(=O)N21 [CLAVULANIC ACID]									20	27000	1000	1000	13600
CO[C@@]1(NC(=O)Cc2cccs2)C(=O)N2C(C(=O)O)=C(COC(N)=O)CS[C@@H]21 [CEFOXITIN]	0.25 (≈ 0.585 µM)	4 (≈ 9.36 µM)	4 (≈ 9.36 µM)	4 (≈ 9.36 µM)	4 (≈ 9.36 µM)	4 (≈ 9.36 µM)	4 (≈ 9.36 µM)	4 (≈ 9.36 µM)					
C[C@]1(Cn2ccnn2)[C@H](C(=O)O)N2C(=O)C[C@H]2S1(=O)=O [TAZOBACTAM]									130	1800			
